Columns and labels:
Aβ plaques = experiment: [3H]PIB competition autoradiography in postmortem human AD frontal cortex slices; format: binding; conditions: for displacement of [3H]PIB (words, discussion): concentration not restated
α4β2* nAChRs = α4β2* nAChRs (Rattus norvegicus, UniProt P09483+P12390); conditions: 100 nM drug; rat brain slices
amyloid β = conditions: ref Salloway et al. 2014, Doody et al. 2014, Siemers et al. 2016, cited from earlier work
[1] = 10 μM drug, control GM/WM approx. 3

α4β2* nAChRs, sequence (P09483 31-630): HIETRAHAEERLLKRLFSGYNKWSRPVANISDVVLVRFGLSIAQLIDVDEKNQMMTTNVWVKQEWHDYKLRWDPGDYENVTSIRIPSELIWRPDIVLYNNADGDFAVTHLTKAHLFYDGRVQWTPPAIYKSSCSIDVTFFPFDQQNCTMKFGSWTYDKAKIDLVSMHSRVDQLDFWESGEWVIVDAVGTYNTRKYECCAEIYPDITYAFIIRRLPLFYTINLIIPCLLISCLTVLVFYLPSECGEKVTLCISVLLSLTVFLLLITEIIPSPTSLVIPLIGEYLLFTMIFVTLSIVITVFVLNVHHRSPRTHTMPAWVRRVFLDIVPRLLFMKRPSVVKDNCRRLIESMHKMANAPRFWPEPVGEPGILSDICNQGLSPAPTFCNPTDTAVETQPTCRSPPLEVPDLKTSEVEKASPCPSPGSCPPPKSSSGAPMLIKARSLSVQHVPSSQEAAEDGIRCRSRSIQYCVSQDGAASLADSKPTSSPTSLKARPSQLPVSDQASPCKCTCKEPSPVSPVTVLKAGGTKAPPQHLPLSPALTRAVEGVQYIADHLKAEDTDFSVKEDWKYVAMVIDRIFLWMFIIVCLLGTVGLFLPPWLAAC
α4β2* nAChRs, sequence (P12390 25-500): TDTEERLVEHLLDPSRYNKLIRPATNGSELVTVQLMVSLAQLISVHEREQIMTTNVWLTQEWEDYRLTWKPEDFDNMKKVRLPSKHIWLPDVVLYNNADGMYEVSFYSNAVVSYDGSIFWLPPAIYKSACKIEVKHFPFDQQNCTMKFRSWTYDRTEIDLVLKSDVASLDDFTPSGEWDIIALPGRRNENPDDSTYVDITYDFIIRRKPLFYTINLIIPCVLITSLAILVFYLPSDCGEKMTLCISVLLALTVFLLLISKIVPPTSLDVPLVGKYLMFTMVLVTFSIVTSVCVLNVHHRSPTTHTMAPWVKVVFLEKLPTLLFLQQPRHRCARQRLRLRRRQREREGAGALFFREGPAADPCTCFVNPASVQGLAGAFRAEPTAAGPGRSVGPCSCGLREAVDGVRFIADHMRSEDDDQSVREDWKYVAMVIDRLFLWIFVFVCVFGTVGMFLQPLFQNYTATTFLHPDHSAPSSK

Row | Compound | effect on [3H]PIB binding (Aβ plaques; 1 μM drug) | GM/WM ratio of [3H]PIB binding (Aβ plaques; [1]) | displacement of [3H]PIB (words, discussion) (Aβ plaques) | further results
1 | 5-(3-methoxy-4-propyloxycinnamate)-3-(2-(S)-pyrrolidinylmethoxy)pyridine [GKS-007] | some inhibitory effect | – | – | GM/WM ratio of [3H]PIB binding (Aβ plaques; 1 μM drug, control GM/WM ~2): no significant GM/WM ratio reduction; displacement of [3H]cytisine (α4β2* nAChRs): Displacement of significant amounts
2 | 5-(3′-Ethyl 3-methoxy-4-propyloxycinnamate)-3-(2-(S)-pyrrolidinylmethoxy)pyridine [GKS-006] | – | – | – | displacement of [3H]cytisine (α4β2* nAChRs): Displacement of significant amounts
3 | COc1cc(/C=C/C(=O)CC(=O)/C=C/c2ccc(O)c(OC)c2)ccc1O [CUR, curcumin] | – | 1.5 | significant displacement effect | reduction in GM/WM [3H]PIB binding (Aβ plaques; 10 μM drug): 50%
4 | COc1cc(/C=C/C(=O)O)ccc1O [FA, ferulic acid] | did not significantly affect the binding of [^3H]PIB | 2 | little displacement | GM/WM ratio of [3H]PIB binding (Aβ plaques; 1 μM drug, control GM/WM ~2): ~ 2; [3H]PIB levels in GM and WM (Aβ plaques; 10 μM drug): higher levels of [^3H]PIB
5 | CNc1ccc(N=Nc2ccc(N(C)C)cc2)cc1 [TAZA, 4-methylamino-4'-N,N-dimethylaminoazobenzene] | significant displacement of [^3H]PIB | – | greater than observed by CUR | –
6 | FEX-(3-methoxy-4-(1′-aminobutyryloxy)cinnamic acid [KD-003] | – | 2.4 | – | [3H]PIB levels in GM and WM (Aβ plaques; 10 μM drug): higher levels of [^3H]PIB
7 | solanezumab: Anti-amyloid β monoclonal antibody | – | – | – | clinical outcome (amyloid β; mild to moderate AD): Did not improve clinical outcomes. Trials continue in early stage of disease; Aβ plaque load (measured by PET imaging) before and after antibody treatment (amyloid β): did not change significantly

Source: article PMC6013267 (Medicinal chemistry research : an international journal for …, 2018)
